Tests used:
Assay in all cases: biochemical
Format in all cases: biochemical
[1] = target: 363 human kinases (including Aurora A/B/C) (Homo sapiens, UniProt Q9H3Y6); conditions: SRMS; for remaining activity at 0.1 µM: 100 nM; for remaining activity at 0.1 µM / remaining activity at 0.5 µM: read-out: % Enzyme Activity (relative to DMSO controls)
From the text: (§1) However, the Aurora A/B selectivity ratios derived from our in vitro and in vivo data can be compared to prioritize inhibitors.

[2] = target: 363 human kinases (including Aurora A/B/C) (Homo sapiens, UniProt Q13177); conditions: PAK2; for remaining activity at 0.1 µM: 100 nM; for remaining activity at 0.1 µM / remaining activity at 0.5 µM: read-out: % Enzyme Activity (relative to DMSO controls)
Sequence of 363 human kinases (including Aurora A/B/C) (Homo sapiens, UniProt Q13177) (Q13177 whole entry): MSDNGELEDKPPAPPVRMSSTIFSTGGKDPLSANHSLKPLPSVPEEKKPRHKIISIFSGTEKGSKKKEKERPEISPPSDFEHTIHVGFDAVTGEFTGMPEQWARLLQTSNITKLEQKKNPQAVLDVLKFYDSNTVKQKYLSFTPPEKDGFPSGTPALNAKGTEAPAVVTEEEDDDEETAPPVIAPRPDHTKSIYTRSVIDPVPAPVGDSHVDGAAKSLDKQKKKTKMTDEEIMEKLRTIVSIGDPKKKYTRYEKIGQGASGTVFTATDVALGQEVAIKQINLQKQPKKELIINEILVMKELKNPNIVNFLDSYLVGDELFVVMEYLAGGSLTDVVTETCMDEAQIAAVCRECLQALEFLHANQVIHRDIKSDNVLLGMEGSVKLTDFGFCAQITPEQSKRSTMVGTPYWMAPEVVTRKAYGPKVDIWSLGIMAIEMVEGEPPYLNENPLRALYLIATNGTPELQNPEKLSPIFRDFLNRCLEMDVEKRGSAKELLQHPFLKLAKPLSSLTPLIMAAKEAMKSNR
From the text: as §1

[3] = target: 363 human kinases (including Aurora A/B/C) (Homo sapiens, UniProt P57059); conditions: SIK1; for remaining activity at 0.1 µM: 100 nM; for remaining activity at 0.1 µM / remaining activity at 0.5 µM: read-out: % Enzyme Activity (relative to DMSO controls)
Sequence of 363 human kinases (including Aurora A/B/C) (Homo sapiens, UniProt P57059) (P57059 whole entry): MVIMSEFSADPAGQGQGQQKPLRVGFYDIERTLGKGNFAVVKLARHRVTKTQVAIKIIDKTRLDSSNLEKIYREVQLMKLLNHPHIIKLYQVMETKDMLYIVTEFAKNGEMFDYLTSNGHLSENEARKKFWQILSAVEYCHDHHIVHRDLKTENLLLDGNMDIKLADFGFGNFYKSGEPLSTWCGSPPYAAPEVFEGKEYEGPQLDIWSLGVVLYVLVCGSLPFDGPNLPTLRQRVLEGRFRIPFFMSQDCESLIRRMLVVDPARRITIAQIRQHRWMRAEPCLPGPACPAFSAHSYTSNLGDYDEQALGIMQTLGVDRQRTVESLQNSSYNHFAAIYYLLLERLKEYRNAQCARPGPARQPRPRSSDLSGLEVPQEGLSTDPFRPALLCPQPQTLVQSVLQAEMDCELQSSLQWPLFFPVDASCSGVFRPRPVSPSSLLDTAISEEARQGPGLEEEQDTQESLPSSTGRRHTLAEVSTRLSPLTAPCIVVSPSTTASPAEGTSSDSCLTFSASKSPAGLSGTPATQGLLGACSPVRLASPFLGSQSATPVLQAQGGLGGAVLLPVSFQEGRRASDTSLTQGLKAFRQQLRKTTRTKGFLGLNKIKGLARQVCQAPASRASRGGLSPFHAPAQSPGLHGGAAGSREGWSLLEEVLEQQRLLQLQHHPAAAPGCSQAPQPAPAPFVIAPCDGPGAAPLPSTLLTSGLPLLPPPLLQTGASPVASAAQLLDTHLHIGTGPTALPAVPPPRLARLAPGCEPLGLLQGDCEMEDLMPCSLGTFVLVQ
From the text: as §1

[4] = target: 363 human kinases (including Aurora A/B/C) (Homo sapiens, UniProt Q16539); conditions: P38a/MAPK14; for remaining activity at 0.1 µM: 100 nM; for remaining activity at 0.1 µM / remaining activity at 0.5 µM: read-out: % Enzyme Activity (relative to DMSO controls)
Sequence of 363 human kinases (including Aurora A/B/C) (Homo sapiens, UniProt Q16539) (Q16539 whole entry): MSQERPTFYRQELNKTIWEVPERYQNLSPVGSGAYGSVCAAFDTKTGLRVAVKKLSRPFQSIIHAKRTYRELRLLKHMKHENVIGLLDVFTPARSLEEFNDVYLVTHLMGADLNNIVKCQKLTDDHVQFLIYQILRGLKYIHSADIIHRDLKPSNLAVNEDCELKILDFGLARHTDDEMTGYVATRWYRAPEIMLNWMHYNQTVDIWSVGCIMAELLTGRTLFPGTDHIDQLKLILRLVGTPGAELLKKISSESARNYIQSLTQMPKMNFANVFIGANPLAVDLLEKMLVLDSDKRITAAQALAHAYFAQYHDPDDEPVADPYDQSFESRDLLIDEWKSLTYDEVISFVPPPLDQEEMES
From the text: as §1

[5] = target: T1, 363 human kinases (including Aurora A/B/C) (Homo sapiens, UniProt Q9UF33); conditions: EPHA6, [ATP] 100 µM; for remaining activity at 0.1 µM: 100 nM; for remaining activity at 0.1 µM / remaining activity at 0.5 µM: read-out: % Enzyme Activity (relative to DMSO controls)
T1 sequence (Q9UF33 23-1036): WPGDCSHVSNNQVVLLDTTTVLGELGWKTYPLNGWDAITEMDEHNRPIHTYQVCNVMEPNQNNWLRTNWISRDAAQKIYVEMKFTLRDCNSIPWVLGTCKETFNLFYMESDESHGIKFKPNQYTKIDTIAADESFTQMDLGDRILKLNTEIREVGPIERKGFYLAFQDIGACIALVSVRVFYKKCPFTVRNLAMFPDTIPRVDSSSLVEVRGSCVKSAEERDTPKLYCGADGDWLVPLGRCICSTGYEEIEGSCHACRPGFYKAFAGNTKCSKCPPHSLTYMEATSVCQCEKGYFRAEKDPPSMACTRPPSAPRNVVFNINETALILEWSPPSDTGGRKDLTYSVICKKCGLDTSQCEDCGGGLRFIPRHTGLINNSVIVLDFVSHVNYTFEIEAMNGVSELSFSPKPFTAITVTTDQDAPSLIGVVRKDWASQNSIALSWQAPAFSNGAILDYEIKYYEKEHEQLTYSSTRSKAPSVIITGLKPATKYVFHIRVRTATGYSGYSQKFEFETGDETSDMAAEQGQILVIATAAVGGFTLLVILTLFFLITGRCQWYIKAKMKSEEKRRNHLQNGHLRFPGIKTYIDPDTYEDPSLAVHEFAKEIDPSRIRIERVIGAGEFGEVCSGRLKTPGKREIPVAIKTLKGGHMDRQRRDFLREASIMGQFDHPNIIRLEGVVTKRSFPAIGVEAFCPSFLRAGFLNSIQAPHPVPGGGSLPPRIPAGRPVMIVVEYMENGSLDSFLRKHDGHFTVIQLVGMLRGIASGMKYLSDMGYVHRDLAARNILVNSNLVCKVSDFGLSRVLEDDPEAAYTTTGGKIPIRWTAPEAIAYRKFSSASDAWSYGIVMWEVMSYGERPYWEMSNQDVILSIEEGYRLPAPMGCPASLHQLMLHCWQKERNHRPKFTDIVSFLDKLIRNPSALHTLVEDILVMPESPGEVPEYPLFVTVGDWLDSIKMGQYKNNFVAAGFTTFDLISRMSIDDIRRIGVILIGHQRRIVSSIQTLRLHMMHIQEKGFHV
From the text: as §1

[6] = target: 363 human kinases (including Aurora A/B/C) (Homo sapiens, UniProt P09619); conditions: PDGFRb; for remaining activity at 0.1 µM: 100 nM; for remaining activity at 0.1 µM / remaining activity at 0.5 µM: read-out: % Enzyme Activity (relative to DMSO controls)
From the text: as §1

[7] = target: 363 human kinases (including Aurora A/B/C) (Homo sapiens, UniProt P07333); conditions: FMS; for remaining activity at 0.1 µM: 100 nM; for remaining activity at 0.1 µM / remaining activity at 0.5 µM: read-out: % Enzyme Activity (relative to DMSO controls)
Sequence of 363 human kinases (including Aurora A/B/C) (Homo sapiens, UniProt P07333) (P07333 20-972): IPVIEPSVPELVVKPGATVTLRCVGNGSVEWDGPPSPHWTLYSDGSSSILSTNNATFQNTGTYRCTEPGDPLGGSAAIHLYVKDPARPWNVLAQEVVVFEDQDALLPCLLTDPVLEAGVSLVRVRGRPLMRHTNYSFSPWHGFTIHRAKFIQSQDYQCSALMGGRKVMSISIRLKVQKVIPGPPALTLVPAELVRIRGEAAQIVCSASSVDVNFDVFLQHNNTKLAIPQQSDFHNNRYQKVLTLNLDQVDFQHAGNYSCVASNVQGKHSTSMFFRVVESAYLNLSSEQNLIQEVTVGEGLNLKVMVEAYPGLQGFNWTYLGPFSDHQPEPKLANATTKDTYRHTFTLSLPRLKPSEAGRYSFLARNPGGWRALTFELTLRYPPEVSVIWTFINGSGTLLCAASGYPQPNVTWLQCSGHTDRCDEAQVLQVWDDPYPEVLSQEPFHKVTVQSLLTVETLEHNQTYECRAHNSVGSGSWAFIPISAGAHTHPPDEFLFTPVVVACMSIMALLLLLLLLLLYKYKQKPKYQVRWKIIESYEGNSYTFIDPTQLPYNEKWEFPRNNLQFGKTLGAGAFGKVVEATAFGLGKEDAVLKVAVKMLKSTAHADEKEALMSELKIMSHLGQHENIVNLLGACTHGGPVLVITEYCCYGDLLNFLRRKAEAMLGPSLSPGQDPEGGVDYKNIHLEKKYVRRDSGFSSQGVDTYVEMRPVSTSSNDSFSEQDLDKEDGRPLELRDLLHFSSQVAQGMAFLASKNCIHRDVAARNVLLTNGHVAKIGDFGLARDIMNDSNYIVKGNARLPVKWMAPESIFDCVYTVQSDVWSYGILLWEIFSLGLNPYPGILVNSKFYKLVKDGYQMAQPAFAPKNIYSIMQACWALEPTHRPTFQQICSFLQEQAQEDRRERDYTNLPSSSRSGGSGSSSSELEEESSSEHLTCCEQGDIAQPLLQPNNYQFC
From the text: as §1

[8] = target: T2, 363 human kinases (including Aurora A/B/C) (Homo sapiens, UniProt Q08881); conditions: ITK; for remaining activity at 0.1 µM: 100 nM; for remaining activity at 0.1 µM / remaining activity at 0.5 µM: read-out: % Enzyme Activity (relative to DMSO controls)
T2 sequence (Q08881 1-620): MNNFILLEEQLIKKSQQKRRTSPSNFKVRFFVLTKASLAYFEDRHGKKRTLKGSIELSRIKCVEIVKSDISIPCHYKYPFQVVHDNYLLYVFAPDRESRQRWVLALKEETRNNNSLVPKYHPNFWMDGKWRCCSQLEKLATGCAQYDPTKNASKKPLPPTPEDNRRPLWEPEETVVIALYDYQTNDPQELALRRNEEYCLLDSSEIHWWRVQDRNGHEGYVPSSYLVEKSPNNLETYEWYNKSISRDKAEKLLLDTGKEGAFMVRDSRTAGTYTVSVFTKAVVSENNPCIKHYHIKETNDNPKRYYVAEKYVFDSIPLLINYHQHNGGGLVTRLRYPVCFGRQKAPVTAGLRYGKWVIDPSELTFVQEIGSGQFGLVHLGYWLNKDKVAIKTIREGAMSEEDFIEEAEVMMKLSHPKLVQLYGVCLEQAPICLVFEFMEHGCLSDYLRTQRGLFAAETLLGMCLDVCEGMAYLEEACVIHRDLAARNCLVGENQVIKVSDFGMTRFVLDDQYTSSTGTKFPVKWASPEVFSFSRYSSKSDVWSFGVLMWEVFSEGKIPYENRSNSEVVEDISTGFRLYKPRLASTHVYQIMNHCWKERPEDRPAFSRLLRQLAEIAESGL
From the text: as §1

[9] = target: 363 human kinases (including Aurora A/B/C) (Homo sapiens, UniProt P31749); conditions: AKT1, [ATP] 100 µM; for remaining activity at 0.1 µM: 100 nM; for remaining activity at 0.1 µM / remaining activity at 0.5 µM: read-out: % Enzyme Activity (relative to DMSO controls)
Sequence of 363 human kinases (including Aurora A/B/C) (Homo sapiens, UniProt P31749) (P31749 whole entry): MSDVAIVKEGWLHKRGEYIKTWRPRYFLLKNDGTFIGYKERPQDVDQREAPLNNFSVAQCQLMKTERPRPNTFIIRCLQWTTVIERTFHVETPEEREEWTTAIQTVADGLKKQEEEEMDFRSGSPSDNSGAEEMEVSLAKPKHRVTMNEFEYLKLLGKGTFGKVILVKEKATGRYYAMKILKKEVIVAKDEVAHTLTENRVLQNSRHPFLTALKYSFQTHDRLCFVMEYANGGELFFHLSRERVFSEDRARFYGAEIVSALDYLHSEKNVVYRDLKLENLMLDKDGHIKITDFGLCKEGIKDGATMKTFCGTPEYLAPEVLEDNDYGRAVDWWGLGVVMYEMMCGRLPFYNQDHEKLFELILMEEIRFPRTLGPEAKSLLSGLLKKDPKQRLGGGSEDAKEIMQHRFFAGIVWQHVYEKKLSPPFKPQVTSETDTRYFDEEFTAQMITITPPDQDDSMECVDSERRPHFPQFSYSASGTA
From the text: as §1

[10] = target: 363 human kinases (including Aurora A/B/C) (Homo sapiens, UniProt Q96NX5); conditions: CAMK1g, [ATP] 30 µM; for remaining activity at 0.1 µM: 100 nM; for remaining activity at 0.1 µM / remaining activity at 0.5 µM: read-out: % Enzyme Activity (relative to DMSO controls)
Sequence of 363 human kinases (including Aurora A/B/C) (Homo sapiens, UniProt Q96NX5) (Q96NX5 whole entry): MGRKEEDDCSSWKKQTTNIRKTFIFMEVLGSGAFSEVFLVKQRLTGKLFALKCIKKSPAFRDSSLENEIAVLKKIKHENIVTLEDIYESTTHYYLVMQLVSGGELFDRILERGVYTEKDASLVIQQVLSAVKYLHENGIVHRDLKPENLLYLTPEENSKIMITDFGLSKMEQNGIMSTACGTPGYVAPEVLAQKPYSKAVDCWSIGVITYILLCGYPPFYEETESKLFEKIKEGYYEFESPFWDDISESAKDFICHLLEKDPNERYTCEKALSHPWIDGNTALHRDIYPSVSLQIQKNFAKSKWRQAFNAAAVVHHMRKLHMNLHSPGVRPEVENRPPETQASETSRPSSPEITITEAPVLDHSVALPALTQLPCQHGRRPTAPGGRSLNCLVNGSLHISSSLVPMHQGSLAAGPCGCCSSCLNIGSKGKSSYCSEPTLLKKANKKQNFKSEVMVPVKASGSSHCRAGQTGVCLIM
From the text: as §1

[11] = target: 363 human kinases (including Aurora A/B/C) (Homo sapiens, UniProt P49840); conditions: GSK3a; for remaining activity at 0.1 µM: 100 nM; for remaining activity at 0.1 µM / remaining activity at 0.5 µM: read-out: % Enzyme Activity (relative to DMSO controls)
Sequence of 363 human kinases (including Aurora A/B/C) (Homo sapiens, UniProt P49840) (P49840 whole entry): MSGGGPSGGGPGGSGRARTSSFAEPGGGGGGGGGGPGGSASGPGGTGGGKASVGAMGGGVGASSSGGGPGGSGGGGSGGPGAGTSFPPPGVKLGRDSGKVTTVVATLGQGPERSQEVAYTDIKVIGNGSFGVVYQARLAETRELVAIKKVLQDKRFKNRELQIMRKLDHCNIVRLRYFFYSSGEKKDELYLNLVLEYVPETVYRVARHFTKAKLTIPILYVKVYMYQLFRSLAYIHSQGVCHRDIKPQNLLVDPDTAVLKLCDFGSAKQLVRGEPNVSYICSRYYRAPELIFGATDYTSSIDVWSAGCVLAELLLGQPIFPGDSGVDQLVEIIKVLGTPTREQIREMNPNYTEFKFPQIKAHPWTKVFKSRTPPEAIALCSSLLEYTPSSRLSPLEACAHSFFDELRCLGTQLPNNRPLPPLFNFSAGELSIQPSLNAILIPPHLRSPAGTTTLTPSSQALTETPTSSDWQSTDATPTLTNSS
From the text: as §1

Sequence of 363 human kinases (including Aurora A/B/C) (Homo sapiens, UniProt Q9H3Y6) (Q9H3Y6 whole entry): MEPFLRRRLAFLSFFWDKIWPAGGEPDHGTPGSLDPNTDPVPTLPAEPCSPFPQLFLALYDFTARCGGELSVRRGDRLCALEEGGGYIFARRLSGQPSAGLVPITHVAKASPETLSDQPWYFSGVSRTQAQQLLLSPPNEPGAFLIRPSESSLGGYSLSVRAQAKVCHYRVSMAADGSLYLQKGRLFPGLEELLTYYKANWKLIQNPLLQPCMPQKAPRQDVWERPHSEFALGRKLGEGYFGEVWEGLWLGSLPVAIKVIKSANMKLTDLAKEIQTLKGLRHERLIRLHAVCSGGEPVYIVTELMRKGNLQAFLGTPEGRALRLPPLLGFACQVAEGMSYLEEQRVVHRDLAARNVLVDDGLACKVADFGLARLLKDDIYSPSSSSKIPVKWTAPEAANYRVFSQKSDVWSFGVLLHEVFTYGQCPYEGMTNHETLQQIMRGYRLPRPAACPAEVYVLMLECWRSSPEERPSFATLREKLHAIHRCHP

Structure (SMILES) | remaining activity at 0.1 µM [1] [%] | remaining activity at 0.5 µM ([1]; 500 nM) [%] | remaining activity at 0.1 µM [2] [%] | remaining activity at 0.5 µM ([2]; 500 nM) [%] | remaining activity at 0.1 µM [3] [%] | remaining activity at 0.5 µM ([3]; 500 nM) [%] | remaining activity at 0.1 µM [4] [%] | remaining activity at 0.5 µM ([4]; 500 nM) [%] | remaining activity at 0.1 µM [5] [%] | remaining activity at 0.5 µM ([5]; 500 nM) [%] | remaining activity at 0.1 µM [6] [%] | remaining activity at 0.5 µM ([6]; 500 nM) [%] | remaining activity at 0.1 µM [7] [%] | remaining activity at 0.5 µM ([7]; 500 nM) [%] | remaining activity at 0.1 µM [8] [%] | remaining activity at 0.5 µM ([8]; 500 nM) [%] | remaining activity at 0.1 µM [9] [%] | remaining activity at 0.5 µM ([9]; 500 nM) [%] | remaining activity at 0.1 µM [10] [%] | remaining activity at 0.5 µM ([10]; 500 nM) [%] | other results
O=C(O)[C@]1(Cc2cccc(Nc3nccs3)n2)CC[C@@H](Oc2cccc(Cl)c2F)CC1 [MK-5108] | 95.1 | 94.8 | 97.1 | 98.2 | 103 | 54.4 | 95.2 | 101 | 5.77 | 1.6 | 86.7 | 67.2 | 78.2 | 51.9 | 89 | 46.3 | 116 | 102 | 100 | 93.7 | remaining activity at 0.1 µM [11]: 32.5%; remaining activity at 0.5 µM ([11]; 500 nM): 24.7%
O=C(c1cccc(Cl)c1F)N1CCN(Cc2cccc(Nc3nccs3)n2)CC1 [MK-8745] | – | 98.4 | – | 105 | – | 95.7 | – | 95.3 | – | 34.6 | – | 89.7 | – | 95 | – | 104 | – | 97.4 | – | 91.9 | % Enzyme Activity (relative to DMSO controls) ([1]; 500 nM): 96.62%; % Enzyme Activity (relative to DMSO controls) ([2]; 500 nM): 102.92%; % Enzyme Activity (relative to DMSO controls) ([3]; 500 nM): 93.78%; % Enzyme Activity (relative to DMSO controls) ([4]; 500 nM): 95.14%; % Enzyme Activity (relative to DMSO controls) ([5]; 500 nM): 34.30%; % Enzyme Activity (relative to DMSO controls) ([6]; 500 nM): 88.70%; % Enzyme Activity (relative to DMSO controls) ([7]; 500 nM): 92.34%; % Enzyme Activity (relative to DMSO controls) ([8]; 500 nM): 102.90%; % Enzyme Activity (relative to DMSO controls) ([9]; 500 nM): 95.86%; % Enzyme Activity (relative to DMSO controls) ([10]; 500 nM): 91.44%; % Enzyme Activity (relative to DMSO controls) ([11]; 500 nM): 21.35%; remaining activity at 0.5 µM ([11]; 500 nM): 23%
CCn1cc(-c2ccnc3[nH]c(-c4cccc(CN(C)C)c4)cc23)c(-c2ccc(NC(=O)N(C)C)cc2)n1 [GSK1070916] | 95 | – | 106 | – | 40.7 | – | 93.6 | – | 89.4 | – | 90.4 | – | 80.2 | – | 77.7 | – | 105 | – | 96.3 | – | remaining activity at 0.1 µM [11]: 99%

Source: publication PMC4685510, “A Cell Biologist’s Field Guide to Aurora Kinase Inhibitors” (Frontiers in Oncology, 2015)
